# Experimental data taken from patent US20230099811A1, “COMPOSITION OF HYALURONIC ACID AND USE ALONE AND IN COMBINATION WITH RETINOIDS TO IMPROVE SKIN” (RoC OPCO LLC, priority 2021, published 2023).
# Columns and labels:
# [1] = test system: Collagen type-I (COL1A1) gene; assay: Gene expression change by qPCR in EpiDerm-FT: COL1A1; assay type: cell-based, human; details: vs vehicle-treated tissues, GAPDH housekeeping
# Description: (§1) The purpose of this study was to evaluate the hyaluronic acid (HA) expression change activity of RoC® HA Serum Capsules (i.e. Example 2.0), RoC® Retinol Serum Capsules (i.e. Example 1.0), commercially available HA Serum (1.5 wt. % HA) and commercially available Retinol Serum (0.3 wt. % retinol) compared to 0.15% Retinol-treated tissues in cultured human epidermal/dermal skin tissues (EpiDerm-FT™). HA levels from culture medium, tissue lysates, HA histology and gene expression related to dermal anti-aging effects were quantified using qPCR method after 24- and 72-hours incubation with test materials.
# [2] = test system: Collagen type-III (COL3A1) gene; assay: Gene expression change by qPCR in EpiDerm-FT: COL3A1; assay type: cell-based, human; details: vs vehicle-treated tissues, GAPDH housekeeping
# Description: as §1
# [3] = test system: Hyaluronic acid synthase-2 (HAS2) gene; assay: Gene expression change by qPCR in EpiDerm-FT: HAS2; assay type: cell-based, human; details: vs vehicle-treated tissues, GAPDH housekeeping
# Description: as §1
# Elastin (ELN) gene = assay: Gene expression change by qPCR in EpiDerm-FT: ELN; assay type: cell-based, human; details: vs vehicle-treated tissues, GAPDH housekeeping
# Description: as §1
# [4] = test system: cultured human epidermal/dermal skin tissues (EpiDerm-FT); assay: Alcian Blue histology of dermal layer, image analysis, EpiDerm-FT; assay type: cell-based; details: vs vehicle-only treated tissues
# Description: as §1
# After incubations, tissues were fixed and subjected to the normal steps of tissue preparation for histological analysis: dehydration, paraffin embedding, sectioning and staining with Alcian Blue. Histological activity was analyzed using image analysis including blue-color deconvolution and luminosity per section area in dermal layer. The percent change effect of each treatment was calculated comparing the vehicle-only treated tissues group.
# [5] = test system: Hyaluronic acid synthase-1 (HAS1) gene; assay: Gene expression change by qPCR in EpiDerm-FT: HAS1; assay type: cell-based, human; details: vs vehicle-treated tissues, GAPDH housekeeping
# Description: as §1
# Fibronectin (FN1) gene = assay: Gene expression change by qPCR in EpiDerm-FT: FN1; assay type: cell-based, human; details: vs vehicle-treated tissues, GAPDH housekeeping
# Description: as §1
# [6] = test system: Collagen type-IV (COL4A1) gene; assay: Gene expression change by qPCR in EpiDerm-FT: COL4A1; assay type: cell-based, human; details: vs vehicle-treated tissues, GAPDH housekeeping
# Description: as §1
# [7] = test system: cultured human epidermal/dermal skin tissues (EpiDerm-FT); assay: Hyaluronic acid levels by HA ELISA in culture medium and tissue lysates of EpiDerm-FT; assay type: cell-based; details: vs vehicle-treated tissues
# Description: as §1
# [8] = 24 hr, n = 3, listed as 0.15% Retinol formulated in DMSO
smiles,measurement,setting,value
"CC1=C(/C=C/C(C)=C/C=C/C(C)=C/CO)C(C)(C)CCC1 [0.15% Retinol in DMSO, Retinol]","Gene Expression change, COL1A1",[1]; 24 hr,−22%
same,"Gene Expression change, COL1A1",[1]; 72 hr,+18%
same,"Gene Expression change, COL3A1",[2]; 24 hr,−22%
same,"Gene Expression change, COL3A1",[2]; 72 hr,+8%
same,"Gene Expression change, HAS2",[3]; 24 hr,−11%
same,"Gene Expression change, HAS2",[3]; 72 hr,−18%
same,"Gene Expression change, ELN",Elastin (ELN) gene; 24 hr,−21%
same,"Gene Expression change, ELN",Elastin (ELN) gene; 72 hr,+25%
same,"Histology, Alcian Blue in Dermis staining change",[4]; 24 hr,+81%
same,"Histology, Alcian Blue in Dermis staining change",[4]; 72 hr,−9%
same,"Gene Expression change, HAS1",[5]; 24 hr,−52%
same,"Gene Expression change, HAS1",[5]; 72 hr,−29%
same,"Gene Expression change, FN1",Fibronectin (FN1) gene; 24 hr,−16%
same,"Gene Expression change, FN1",Fibronectin (FN1) gene; 72 hr,+45%
same,"Gene Expression change, FN1","Fibronectin (FN1) gene; 72 hr, listed as 0.15% Retinol formulated in DMSO",45%
same,"Gene Expression change, COL4A1",[6]; 24 hr,−30%
same,"Gene Expression change, COL4A1",[6]; 72 hr,+9%
same,"Hyaluronic Acid (HA) levels change, Culture medium","[7]; 24 hr, n = 3",+34%
same,"Hyaluronic Acid (HA) levels change, Tissue lysates","[7]; 24 hr, n = 3",+52%
same,"Hyaluronic Acid (HA) levels change, Culture medium",[7]; [8],34%
same,"Hyaluronic Acid (HA) levels change, Tissue lysates",[7]; [8],52%
same,"Hyaluronic Acid (HA) levels change, Culture medium","[7]; 72 hr, n = 3",+25%
same,"Hyaluronic Acid (HA) levels change, Tissue lysates","[7]; 72 hr, n = 3",+49%
